According to publication PMC6156121 (Science Advances, 2018):

Columns and labels:
Assay in all cases: IP kinase assay, GST-P70S6K peptide, anti-p-P70S6K Thr389 immunoblot
Format in all cases: biochemical
Details in all cases: […] inhibitor, […] ATP, […] MgCl2, pH […] C; ATP-competitive
mTORC3 = mTORC3 (Homo sapiens, UniProt P42345)
mTORC2 = mTORC2 (Homo sapiens, UniProt P42345)
mTORC1 = mTORC1 (Homo sapiens, UniProt P42345)

| SMILES | IP kinase assay, GST-P70S6K peptide, anti-p-P70S6K Thr389 immunoblot (mTORC3) | IP kinase assay, GST-P70S6K peptide, anti-p-P70S6K Thr389 immunoblot (mTORC2) | IP kinase assay, GST-P70S6K peptide, anti-p-P70S6K Thr389 immunoblot (mTORC1) |
| --- | --- | --- | --- |
| COc1ccc(-c2ccc3c(N4CCOC[C@@H]4C)nc(N4CCOC[C@@H]4C)nc3n2)cc1CO [AZD-8055] | preincubation with OSI-27 or AZD-8055 at an mTOR-specific concentration inhibited the kinase activity | inhibited the kinase activity of all mTORCs | inhibited the kinase activity of all mTORCs |
| COc1cccc2cc(-c3nc([C@H]4CC[C@H](C(=O)O)CC4)n4ncnc(N)c34)[nH]c12 [OSI-27] | preincubation with OSI-27 or AZD-8055 at an mTOR-specific concentration inhibited the kinase activity | inhibited the kinase activity of all mTORCs | inhibited the kinase activity of all mTORCs |
